{"source": "patent US20260015632A1", "about": "“CULTURE MEDIUM COMBINATION FOR INDUCING DIFFERENTIATION OF PLURIPOTENT STEM CELLS INTO CD34+ HEMATOPOIETIC STEM/PROGENITOR CELLS” (SHENZHEN CELL INSPIRE BIOTECHNOLOGY CO., LTD., priority 2023, published 2026)", "molecules": {"B1": {"name": "BMP4: growth factor added to the first and second differentiation medium (protein, UniProt P12644 293-408, looked up)", "Bone morphogenetic protein 4": "SPKHHSQRARKKNKNCRRHSLYVDFSDVGWNDWIVAPPGYQAFYCHGDCPFPLADHLNSTNHAIVQTLVNSVNSSIPKACCVPTELSAISMLYLDEYDKVVLKNYQEMVVEGCGCR"}}, "type_in_all_cases": "cell-based, human", "key": {"iPSCs [1]": {"test_system": "iPSCs", "test": "Optimization of iNK purity and yield, flow cytometry CD56/CD45 and fold expansion", "parameters": "yield of HSPCs / yield of iNK cells differentiated from these HSPCs: dose or concentration left out as unconfirmed", "settings": "for proliferation rate of iNK cells: concentrations and media as in Example 5; for proportion of CD56+ or CD45+ cells / yield of iNK cells: added to fourth differentiation medium: NAD+, 0.1 ng/mL HLA-C, 1000 IU IL-2 or 15 μM SB203580", "protocol": "To further improve the differentiation efficiency and cytotoxicity of the obtained NK cells, UM171 was added to the second differentiation medium. […] The expression levels of CD56 and CD45 of the obtained NK cells and the cell fold expansion were measured by flow cytometry.\n(§1) The cell expansion at the HSPC stage and the NK stage was calculated by dividing the number of suspension cells obtained at the sampling time point by the initial number of iPSCs at the spheroidization stage. The cell number was determined using the Countess™ 2 automated cell counter, and specific operating procedures can be found in the instrument's instructions."}, "iPSCs [2]": {"test_system": "iPSCs", "test": "qPCR marker expression on Day 3 of iPSC differentiation, optimization of first differentiation medium", "settings": "Day 3 of differentiation, 50 ng/mL BMP4, 10 μM CHIR99021; for expression of OCT4: added to first differentiation medium (mTeSR1+5 μM Y27632), alone or combined; for expression of early mesoderm and mesoderm markers (MIXL1 and T) / expression of hemogenic endothelial lineage-related markers (KDR, SCL) / expression of the HSPC marker (CD34): added to first differentiation medium", "protocol": "iPSCs were aggregated into spheroids by either static spheroidization or shaking spheroidization. • 1) Static spheroidization. An appropriate number of iPSCs in a single-cell state were transferred to an AggreWell™ microwell plate, and subsequent operations were carried out according to the AggreWell™ 400 or AggreWell™ 800 instructions. Briefly, the concentration of the single-cell suspension was adjusted, and sufficient volumes of the single-cell suspension were added to each well of the AggreWell™ 400 or AggreWell™ 800 to achieve approximately 500,000 iPSCs in a single-cell state per well. Then, each well was supplemented with mTeSR™1 or TeSR™-AOF medium, and 5 μM Y27632 was added to reach a total of 5 mL/well. Then, a balance plate filled with water was prepared to match the weight and position of the AggreWell™ microwell plate in the centrifuge. The cells were then pipetted gently up and down several times to ensure uniform distribution of cells across the wells. The AggreWell™ plate was immediately centrifuged at 100 g for 3 minutes using the balanced plate prepared in the previous step to force the cells into the microwells. The plate was observed under a microscope to verify that the cells were evenly distributed in the microwells. The cells were cultured under static conditions at 37° C., 5% CO2, and 95% humidity for 1 to 2 days. • 2) Shaking spheroidization. The concentration of the single-cell suspension was adjusted, and 1.5 million iPSCs in a single-cell state were transferred to a 6-well plate. Each well was supplemented with mTeSR™1 medium containing 5 μM Y27632, 50 ng/mL BMP4, and 10 μM CHIR99021 to achieve a volume of 3 mL per well. The culture plate was placed on an orbital shaker at 60 rpm, 70 rpm, 80 rpm, or 90 rpm for culture, and the wells with uniform sized spheroids were selected for subsequent culture.\nThe iPSCs in the single-cell state were resuspended in the following four media after harvesting: 1) mTeSR™1+5 μM Y27632, 2) mTeSR™1+5 μM Y27632+50 ng/mL BMP4, 3) mTeSR™1+5 μM Y27632+10 μM CHIR99021, and 4) mTeSR™1+5 μM Y27632+50 ng/mL BMP4+10 μM CHIR99021. The cells were then cultured according to the method in Example 1. On Day 3 of differentiation, the cells were lysed, and mRNA was extracted and reverse-transcribed to obtain cDNA. The primers in Table 2 were used to measure the expression levels of OCT4, MIXL1, T, KDR, SCL, and CD34 in HSPCs on Day 3 of differentiation under the above-mentioned media conditions."}, "iPSCs [3]": {"test_system": "iPSCs", "test": "FACS proportion of CD34+ cells, additive in second differentiation medium", "settings": "Day 12; 10 μM CHIR99021 or 0.75 μM SR1 added to second differentiation medium", "protocol": "After 1 to 2 days of cell spheroidization, the medium was replaced with a second differentiation medium, and then the medium was changed every 2 days for 4 to 5 days of culture. The components of the second differentiation medium included: StemPro-34 complete medium supplemented with 1% ITS-X, 1 μM β-mercaptoethanol, 50 μg/mL ascorbic acid, 1× GlutaMAX, 50 ng/mL VEGF, 50 ng/mL bFGF, 50 ng/mL BMP4, and 35 nM UM171. At this stage, the cells can be transferred to a closed system for static culture or shaking culture.\nAfter culturing for 3 days in the second differentiation medium, the medium was replaced with a third differentiation medium. The components of the third differentiation medium included: StemPro-34™ SFM complete medium supplemented with 1% ITS-X, 1 μM β-mercaptoethanol, 50 μg/mL ascorbic acid, 1× GlutaMAX, 50 ng/mL VEGF, 50 ng/mL bFGF, 50 ng/mL SCF, 10 ng/mL FLT3L, and 30 ng/mL TPO. The expression of CD34 or CD43, and CD44 was detected by FACS. […] The proportion and fold expansion of CD34^+ cells were detected at five time points: Day 8, Day 9, Day 10, Day 11, and Day 12. […]\nIn order to further increase the yield and proportion of CD34^+ cells, 10 μM CHIR99021 or 0.75 μM SR1 was added to the second differentiation medium of Example 1, and the proportion of CD34^+ cells in the cell population on Day 12 was detected by FACS. […]"}, "iPSCs [4]": {"test_system": "iPSCs", "test": "UM171 in second and/or third differentiation medium: yield of HSPCs and iNK cells", "settings": "35 nM UM171 added to second differentiation medium", "protocol": "35 nM UM171 was added to the second differentiation medium and/or the third differentiation medium in Example 1, and the proportion of CD34^+ cells in the cell population on Day 12 and the proportion of CD56^+ cells in the cell population on Day 35 were detected by FACS. The results at these two time points are shown in FIG. 16, which indicate that the addition of UM171 to the second differentiation medium can increase the yield of HSPCs differentiated from iPSCs and the yield of iNK cells differentiated from HSPCs.\nas §1"}, "[5]": {"settings": "ABC294640 added to second and third differentiation medium"}}}
{"molecule": "O=C(NCc1ccncc1)C12CC3CC(C1)CC(c1ccc(Cl)cc1)(C3)C2", "note": "[ABC294640]", "values": [{"measurement": "yield of HSPCs", "setting": "iPSCs [1]; [5]", "result": "reducing"}, {"measurement": "yield of iNK cells differentiated from these HSPCs", "setting": "iPSCs [1]; [5]", "result": "significantly increase"}, {"measurement": "proliferation rate of iNK cells", "setting": "iPSCs [1]", "result": "increase"}]}
{"molecule": "Cc1c[nH]c(-c2cnc(NCCNc3ccc(C#N)cn3)nc2-c2ccc(Cl)cc2Cl)n1", "note": "[CHIR99021]", "values": [{"measurement": "expression of OCT4", "setting": "iPSCs [2]", "result": "decreased significantly"}, {"measurement": "expression of early mesoderm and mesoderm markers (MIXL1 and T)", "setting": "iPSCs [2]", "result": "began to decrease"}, {"measurement": "expression of hemogenic endothelial lineage-related markers (KDR, SCL)", "setting": "iPSCs [2]", "result": "increased significantly"}, {"measurement": "expression of the HSPC marker (CD34)", "setting": "iPSCs [2]", "result": "significantly increased"}, {"measurement": "proportion of CD34+ cells in the cell population", "setting": "iPSCs [3]", "result": "increase"}]}
{"molecule": "NC(=O)c1ccc[n+]([C@@H]2O[C@H](COP(=O)([O-])OP(=O)(O)OC[C@H]3O[C@@H](n4cnc5c(N)ncnc54)[C@H](O)[C@@H]3O)[C@@H](O)[C@H]2O)c1", "note": "[NAD^+, nicotinamide adenine dinucleotide]", "values": [{"measurement": "proportion of CD56+ or CD45+ cells", "setting": "iPSCs [1]", "result": "without affecting"}, {"measurement": "yield of iNK cells", "setting": "iPSCs [1]", "result": "increase"}, {"measurement": "proliferation rate of iNK cells", "setting": "iPSCs [1]", "result": "increase"}]}
{"molecule": "C[S+]([O-])c1ccc(-c2nc(-c3ccncc3)c(-c3ccc(F)cc3)[nH]2)cc1", "note": "(stereo not drawn) [SB203580]", "values": [{"measurement": "proportion of CD56+ or CD45+ cells", "setting": "iPSCs [1]", "result": "without affecting"}, {"measurement": "yield of iNK cells", "setting": "iPSCs [1]", "result": "increase"}, {"measurement": "proliferation rate of iNK cells", "setting": "iPSCs [1]", "result": "increase"}]}
{"molecule": "CC(C)n1cnc2c(NCCc3ccc(O)cc3)nc(-c3csc4ccccc34)nc21", "note": "[SR1]", "values": [{"measurement": "proportion of CD34+ cells in the cell population", "setting": "iPSCs [3]", "result": "increase"}]}
{"molecule": "Cn1nnc(-c2ccc3c(c2)[nH]c2nc(Cc4ccccc4)nc(NC4CCC(N)CC4)c23)n1", "note": "(stereo not drawn) [UM171]", "values": [{"measurement": "yield of HSPCs differentiated from iPSCs", "setting": "iPSCs [4]; Day 12", "result": "increase"}, {"measurement": "yield of iNK cells differentiated from HSPCs", "setting": "iPSCs [4]; Day 35", "result": "increase"}]}
{"molecule": "B1", "values": [{"measurement": "expression of OCT4", "setting": "iPSCs [2]", "result": "decreased significantly"}, {"measurement": "expression of early mesoderm and mesoderm markers (MIXL1 and T)", "setting": "iPSCs [2]", "result": "began to decrease"}, {"measurement": "expression of hemogenic endothelial lineage-related markers (KDR, SCL)", "setting": "iPSCs [2]", "result": "increased significantly"}, {"measurement": "expression of the HSPC marker (CD34)", "setting": "iPSCs [2]", "result": "significantly increased"}]}
